From ChEMBL document CHEMBL1255263, “Activity of the Diaminopyrimidine AR-709 against recently collected multidrug-resistant isolates of invasive Streptococcus pneumoniae from North America” (2008)
Values after ≈ are worked out from the molar mass of the structure shown.

Experiments:
Streptococcus pneumoniae [1] = test: Antibacterial activity against multidrug resistant Streptococcus pneumoniae […] by CLSI microdilution susceptibility testing method; assay type: functional
Streptococcus pneumoniae [2] = test: Antibacterial activity against multidrug resistant Streptococcus pneumoniae […] assessed as resistant strains by CLSI microdilution susceptibility testing method; assay type: functional

COc1cc(Cc2cnc(N)nc2N)c2cc(Cc3c(C(=O)N(C)C)[nH]c4ccc(Cl)cc34)oc2c1OC
MIC50 (Streptococcus pneumoniae [1]): 0.25 µg/mL (≈ 0.467 µM)
MIC90 (Streptococcus pneumoniae [1]): 0.5 µg/mL (≈ 0.935 µM)

CC1(C)S[C@@H]2[C@H](NC(=O)[C@H](N)c3ccc(O)cc3)C(=O)N2[C@H]1C(=O)O [AMOXICILLIN]
Activity (Streptococcus pneumoniae [2]): 48.2%
MIC50 (Streptococcus pneumoniae [1]): 2 µg/mL (≈ 5.47 µM)
MIC90 (Streptococcus pneumoniae [1]): 8 µg/mL (≈ 21.9 µM)

CO/N=C(\C(=O)N[C@@H]1C(=O)N2C(C(=O)O)=C(COC(C)=O)CS[C@H]12)c1csc(N)n1 [CEFOTAXIME]
Activity (Streptococcus pneumoniae [2]): 41.1%
MIC50 (Streptococcus pneumoniae [1]): 1 µg/mL (≈ 2.2 µM)
MIC90 (Streptococcus pneumoniae [1]): 2 µg/mL (≈ 4.39 µM)

CCC[C@@H]1C[C@@H](C(=O)N[C@@H]([C@H]2O[C@H](SC)[C@H](O)[C@@H](O)[C@H]2O)[C@H](C)Cl)N(C)C1 [CLINDAMYCIN]
Activity (Streptococcus pneumoniae [2]): 34.8%
MIC50 (Streptococcus pneumoniae [1]): 0.06 µg/mL (≈ 0.141 µM)
MIC90 (Streptococcus pneumoniae [1]): > 8 µg/mL

C[C@H]1c2cccc(O)c2C(=O)C2=C(O)[C@]3(O)C(=O)C(C(N)=O)=C(O)[C@@H](N(C)C)[C@@H]3[C@@H](O)[C@@H]21.O [DOXYCYCLINE]
Activity (Streptococcus pneumoniae [2]): 40.6%
MIC50 (Streptococcus pneumoniae [1]): 0.12 µg/mL
MIC90 (Streptococcus pneumoniae [1]): 8 µg/mL

CC[C@H]1OC(=O)[C@H](C)[C@@H](O[C@H]2C[C@@](C)(OC)[C@@H](O)[C@H](C)O2)[C@H](C)[C@@H](O[C@@H]2O[C@H](C)C[C@H](N(C)C)[C@H]2O)[C@](C)(O)C[C@@H](C)C(=O)[C@H](C)[C@@H](O)[C@]1(C)O [ERYTHROMYCIN]
Activity (Streptococcus pneumoniae [2]): 83.5%
MIC50 (Streptococcus pneumoniae [1]): 8 µg/mL (≈ 10.9 µM)
MIC90 (Streptococcus pneumoniae [1]): > 32 µg/mL

C[C@H]1COc2c(N3CCN(C)CC3)c(F)cc3c(=O)c(C(=O)O)cn1c23.C[C@H]1COc2c(N3CCN(C)CC3)c(F)cc3c(=O)c(C(=O)O)cn1c23.O [LEVOFLOXACIN]
Activity (Streptococcus pneumoniae [2]): 21%
MIC50 (Streptococcus pneumoniae [1]): 1 µg/mL
MIC90 (Streptococcus pneumoniae [1]): > 8 µg/mL

C[C@@H](O)[C@H]1C(=O)N2C(C(=O)O)=C(S[C@@H]3CN[C@H](C(=O)N(C)C)C3)[C@H](C)[C@H]12 [MEROPENEM]
Activity (Streptococcus pneumoniae [2]): 75.9%
MIC50 (Streptococcus pneumoniae [1]): 0.5 µg/mL (≈ 1.3 µM)
MIC90 (Streptococcus pneumoniae [1]): 1 µg/mL (≈ 2.61 µM)

CC1(C)S[C@@H]2[C@H](NC(=O)Cc3ccccc3)C(=O)N2[C@H]1C(=O)O [PENICILLIN G]
Activity (Streptococcus pneumoniae [2]): 85.7%
MIC50 (Streptococcus pneumoniae [1]): 4 µg/mL (≈ 12 µM)
MIC90 (Streptococcus pneumoniae [1]): 4 µg/mL (≈ 12 µM)
